By logP is commonly meant a log measure of how a compound divides between an organic and an aqueous phase.

Read-outs that look alike come from different tables or passages of the source.

A short description of this series: log P determination by HPLC on reversed-phase columns (C 18), acidic range pH 2.7. The class given is physicochemical. As to conditions: for logP: HPLC; for chromatographic logP: reversed-phase HPLC column (C 18).
The mark [1] stands for this setting: pH 2.7, only value, or main isomer.
[2] abbreviates: pH 2.7, second-listed (minor) isomer of the isomer mixture.
The mark [3] stands for this setting: pH 2.7, pH 2.7, preparation example, only value or main isomer, read-out: log P (pH2.7).
Setting [4] is: pH 2.7, HPLC, pH 2.7, only value, or main isomer, read-out: logP.
Where [5] appears, read: pH 2.7, HPLC, pH 2.7, second-listed (minor) isomer of the isomer mixture, read-out: logP.
[6] abbreviates: pH 2.7, pH 2.7, preparation example, minor isomer, read-out: log P (pH2.7).

As to `CC(=NOC1CCCCC1)c1csc(C2CCN(C(=O)Cn3nc(C(F)F)cc3C(F)F)CC2)n1` (mixture of isomers) [I-45], the logP was 4.69 under setting [1] and 4.88 under setting [2].

With `CC(=O)c1csc(C2CCN(C(=O)Cn3nc(C(F)(F)F)cc3C)CC2)n1` [IV-1, 1-[4-(4-Acetyl-1,3-thiazol-2-yl)piperidin-1-yl]-2-[5-methyl-3-(trifluoromethyl)-1H-pyrazol-1-yl]ethanone], the chromatographic logP under setting [3] came to 2.25.

`CCCCCON=C(C)c1csc(C2CCN(C(=O)Cn3nc(C(F)(F)F)cc3C)CC2)n1` [I-20] displayed a logP under setting [1] of 4.71.

As to `O=C(Cc1cc(Cl)ccc1Cl)N1CCC(c2nc(C=NOc3ccccc3Br)cs2)CC1` [I-40], under setting [1], the logP turned out to be 4.90. The compound `Cc1cc(C(F)(F)F)nn1CC(=O)N1CCC(c2nc(C=NN(Cc3ccccc3)c3ccccc3)cs2)CC1` [I-12] came in with a logP under setting [1] of 4.70. Same read-out and setting: as for `Cc1cc(C(F)(F)F)nn1CC(=O)N1CCC(c2nc(C=NN(c3ccccc3)c3ccccc3)cs2)CC1` [I-13], the figure is 4.77. Take `Cc1cc(C(F)(F)F)nn1CC(=O)N1CCC(c2nc(C=NOCc3ccccc3)cs2)CC1` (mixture of isomers) [I-2]: the logP amounted to 3.63 under setting [1] and 3.80 under setting [2]. Consider `CCc1cc(CC)n(CC(=O)N2CCC(c3nc(C=NOCc4ccc(Cl)cc4)cs3)CC2)n1` [I-25], for which the logP under setting [1] was found to be 3.70.

With `Cc1cc(C(F)(F)F)nn1CC(=O)N1CCC(c2nc(C=NN(C)Cc3ccccn3)cs2)CC1` [I-11], the logP under setting [1] is reported as 1.82.

With `CC(=NOC1CCCCC1)c1csc(C2CCN(C(=O)Cn3nc(C(F)(F)F)cc3C)CC2)n1` (mixture of isomers) [I-44], the logP runs as follows: under setting [1], 4.02; under setting [2], 4.12. Taken in the same sequence, the figures for `O=C(Cn1nc(C(F)F)cc1C(F)F)N1CCC(c2nc(C=NOC3CCCCC3)cs2)CC1` (mixture of isomers) [I-34] were 4.12 and 4.33. For `CC(=NN1CCCCC1)c1csc(C2CCN(C(=O)Cn3nc(C(F)(F)F)cc3C)CC2)n1` [I-17, 2-[5-Methyl-3-(trifluoromethyl)-1H-pyrazol-1-yl]-1-(4-{4-[N-(piperidin-1-yl)ethanimidoyl]-1,3-thiazol-2-yl}piperidin-1-yl)ethanone], the chromatographic logP under setting [4] was 3.69 and the chromatographic logP under setting [3] worked out at 3.69. For the compound `CCCCCCON=C(C)c1csc(C2CCN(C(=O)Cn3nc(C(F)(F)F)cc3C)CC2)n1` [I-19], the logP under setting [1] came to 5.13. The same measure, in the same setting: the same measure for `CCc1cc(C(F)(F)F)nn1CC(=O)N1CCC(c2nc(C=NOCc3ccc(Cl)cc3)cs2)CC1` [I-26]: 4.30. Consider `CC(=NOCc1ccccc1)c1csc(C2CCN(C(=O)Cn3nc(C(F)(F)F)cc3C)CC2)n1` (mixture of isomers) [I-10], for which the logP under setting [1] is 4.07 and the logP under setting [2] is 4.28. On to `CC(=NOCCCc1ccccc1)c1csc(C2CCN(C(=O)Cn3nc(C(F)(F)F)cc3C)CC2)n1` [I-21], for which, under setting [1], the logP is reported as 4.66. Regarding `CC(=NOC1CCCCC1)c1csc(C2CCN(C(=O)Cc3cc(Cl)ccc3Cl)CC2)n1` (mixture of isomers) [I-46], the logP was 5.87 under setting [1] and 6.17 under setting [2]. As for `CC(C)(C)c1cc(C(F)(F)C(F)(F)F)nn1CC(=O)N1CCC(c2nc(C=NOCc3ccc(Cl)cc3)cs2)CC1` [I-31], the logP under setting [1] was 5.31. For the compound `Cc1cc(C(F)(F)F)nn1CC(=O)N1CCC(c2nc(C=NOC(C)c3ccc(Cl)cc3)cs2)CC1` (mixture of isomers) [I-8], the logP runs as follows: under setting [1], 4.34; under setting [2], 4.50. `CC(C)(C)c1cc(C(F)(F)C(F)(F)F)n(CC(=O)N2CCC(c3nc(C=NOCc4ccc(Cl)cc4)cs3)CC2)n1` [I-30] displayed a logP under setting [1] of 5.31. Regarding `O=C(Cc1cc(Cl)ccc1Cl)N1CCC(c2nc(C=NOCc3c(F)cccc3F)cs2)CC1` (mixture of isomers) [I-38], the logP came out at 4.36 under setting [1] and 4.60 under setting [2].

In turn, `CC(=NOCCCCc1ccccc1)c1csc(C2CCN(C(=O)Cn3nc(C(F)(F)F)cc3C)CC2)n1` [I-22] displayed a logP under setting [1] of 4.97. On to `CC(=NOCc1c(F)cccc1F)c1csc(C2CCN(C(=O)Cn3nc(C(F)F)cc3C(F)F)CC2)n1` (mixture of isomers) [I-42], for which the logP runs as follows: under setting [1], 4.00; under setting [2], 4.19. Take `CC(=NOC(C)c1ccccc1)c1csc(C2CCN(C(=O)Cn3nc(C(F)(F)F)cc3C)CC2)n1` (centres unmarked) [I-5, 2-[5-Methyl-3-(trifluoromethyl)-1H-pyrazol-1-yl]-1-(4-{4-[N-(1-phenylethoxy)ethanimidoyl]-1,3-thiazol-2-yl}piperidin-1-yl)ethanone]: the chromatographic logP is, setting by setting: under setting [4], 4.38; under setting [5], 4.54; under setting [6], 4.54; under setting [3], 4.38.

Regarding `O=C(Cc1cc(Cl)ccc1Cl)N1CCC(c2nc(C=NOC3CCCCC3)cs2)CC1` (mixture of isomers) [I-35], the logP by setting is: under setting [1], 5.10; under setting [2], 5.45. As to `Cc1cc(C(F)(F)F)nn1CC(=O)N1CCC(c2nc(C=NOCc3c(F)cccc3F)cs2)CC1` (mixture of isomers) [I-36], the logP is 3.70 under setting [1] and 3.86 under setting [2].

With `Cc1cc(C(F)(F)F)nn1CC(=O)N1CCC(c2nc(C=NN(C)c3ccc(C(F)(F)F)cn3)cs2)CC1` [I-14, 2-(1-{[5-Methyl-3-(trifluoromethyl)-1H-pyrazol-1-yl]acetyl}piperidin-4-yl)-1,3-thiazole-4-carbaldehyde methyl[5-(trifluoromethyl)pyridin-2-yl]hydrazone], the chromatographic logP is 4.23 under setting [4] and 4.23 under setting [3]. As for `Cc1cc(C(F)(F)F)nn1CC(=O)N1CCC(c2nc(C=NOC3CCCCC3)cs2)CC1` (mixture of isomers) [I-33], the logP is reported as 4.26 under setting [1] and 4.48 under setting [2].

Compound `O=C(Cn1nc(C(F)(F)F)cc1C(F)(F)F)N1CCC(c2nc(C=NOCc3ccc(Cl)cc3)cs2)CC1` [I-24] came in with a logP under setting [1] of 4.56. Same read-out and setting: as for `Cc1cc(C(F)(F)F)nn1CC(=O)N1CCC(c2nc(C=NN(C)c3ccccc3)cs2)CC1` [I-15], the figure is 3.83. Take `CC(=NOc1ccccc1)c1csc(C2CCN(C(=O)Cn3nc(C(F)(F)F)cc3C)CC2)n1` (mixture of isomers) [I-4]: the logP under setting [1] stood at 4.23 and the lipophilicity (logP) under setting [2] worked out at 4.46. Under setting [1], `Cc1cc(C(F)(F)F)nn1CC(=O)N1CCC(c2nc(C=NOCc3ccccc3Cl)cs2)CC1` [I-18] registered a logP of 4.04. Take `Cc1ccccc1CON=Cc1csc(C2CCN(C(=O)Cn3nc(C(F)(F)F)cc3C)CC2)n1` (mixture of isomers) [I-6]: the logP under setting [1] worked out at 3.96 and the logP under setting [2] is given as 4.12.

For the compound `CC(C)(C)c1cc(C(F)(F)F)nn1CC(=O)N1CCC(c2nc(C=NOCc3ccc(Cl)cc3)cs2)CC1` [I-29], under setting [1], the logP was 4.75. Under setting [1], `Cc1cc(C(F)(F)F)nn1CC(=O)N1CCC(c2nc(C=NOc3ccccc3Br)cs2)CC1` [I-39] registered a logP of 4.14. As to `CC(C)c1cc(C(F)(F)F)n(CC(=O)N2CCC(c3nc(C=NOCc4ccc(Cl)cc4)cs3)CC2)n1` [I-32], the logP under setting [1] is listed as 4.56. For the compound `CC(C)(C)c1cc(C(F)(F)F)n(CC(=O)N2CCC(c3nc(C=NOCc4ccc(Cl)cc4)cs3)CC2)n1` [I-28], under setting [1], the logP is 4.99. In the case of `Cc1cc(C(F)(F)F)nn1CC(=O)N1CCC(c2nc(C=NOC(C)c3ccccc3)cs2)CC1` (mixture of isomers) [I-3], the logP reads like this: under setting [1], 3.92; under setting [2], 4.07. Consider `O=C(Cn1nc(C(F)F)cc1C(F)F)N1CCC(c2nc(C=NOCc3c(F)cccc3F)cs2)CC1` (mixture of isomers) [I-37], for which the logP under setting [1] amounted to 3.58 and the logP under setting [2] is listed as 3.74.

`O=C(Cn1nc(C(F)F)cc1C(F)F)N1CCC(c2nc(C=NOCc3ccc(Cl)cc3)cs2)CC1` [I-27]: the logP under setting [1] worked out at 3.90. Take `Cc1cc(C(F)(F)F)nn1CC(=O)N1CCC(c2nc(C=NOCc3ccccc3F)cs2)CC1` (mixture of isomers) [I-9]: the logP reads like this: under setting [1], 3.68; under setting [2], 3.84.

For the compound `Cc1cc(C(F)(F)F)nn1CC(=O)N1CCC(c2nc(C=NOCc3ccc(Cl)cc3)cs2)CC1` (mixture of isomers) [I-7], the logP was 4.04 under setting [1] and 4.23 under setting [2]. Turning to `CC(=NOCc1c(F)cccc1F)c1csc(C2CCN(C(=O)Cn3nc(C(F)(F)F)cc3C)CC2)n1` (mixture of isomers) [I-41], the logP was 4.11 under setting [1] and 4.32 under setting [2]. The compound `Cc1cc(C(F)(F)F)nn1CC(=O)N1CCC(c2nc(C=NN3CCCCC3)cs2)CC1` [I-16] displayed a logP under setting [1] of 3.00.

Turning to `CC(=NOCc1c(F)cccc1F)c1csc(C2CCN(C(=O)Cc3cc(Cl)ccc3Cl)CC2)n1` (mixture of isomers) [I-43], the logP turned out to be 4.91 under setting [1] and 5.16 under setting [2]. In the case of `Cc1cc(C(F)(F)F)nn1CC(=O)N1CCC(c2nc(C=NOc3ccccc3)cs2)CC1` [I-1, 2-(1-{[5-Methyl-3-(trifluoromethyl)-1H-pyrazol-1-yl]acetyl}piperidin-4-yl)-1,3-thiazole-4-carbaldehyde O-phenyl oxime], the chromatographic logP is, setting by setting: under setting [4], 3.74; under setting [5], 3.94; under setting [6], 3.94; under setting [3], 3.74.

These data come from patent US9215875B2 (priority 2008, dated 2015).
